Data published in publication PMC10814857, “Functional Classification and Interaction Selectivity Landscape of the Human SH3 Domain Superfamily” (Cells, 2024).
pKd: −log10 of the molar value. Values joined by “and” are separate entries in the source; they are usually repeats but may differ in a detail not shown here. Identical values can stand only once. Like-named read-outs stand apart in the source and are kept apart here. Peptide text beside a SMILES is read from it.

Legend:
Assay in all cases: Fluorescence polarization SH3 domain-PRP binding
[1] = target: T1, ITSN1-4 SH3 domain (aa 1070-1138) (Homo sapiens, UniProt Q15811); conditions: FP, 0.2 µM fluorescein-labeled peptide, SH3 domain 0-200 µM, Tris/HCl pH 7.5, 25 °C, quadratic fit
T1 construct: 1070-1138; GST (N); made in house; host or cells: Escherichia coli CodonPlus, Rosetta, BL21(DE3)
T1 sequence (Q15811 1070-1138): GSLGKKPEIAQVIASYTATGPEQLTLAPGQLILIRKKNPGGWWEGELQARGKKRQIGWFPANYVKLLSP
Experimental: (§1) The interaction between fluorescein-labeled proline-rich peptides (0.2 µM) and increasing concentrations of SH3 domains (ranging from 0 to 200 µM) was measured in a buffer (containing 30 mM Tris/HCl (pH 7.5), 5 mM MgCl2, and 3 mM DTT at 25 °C) in a total volume of 200 µL using a Fluoromax 4 fluorimeter in polarization mode and a quartz glass fluorescence cuvette (Hellma Ultra-Micro Cuvette 105.250-QS, Thermo Fisher Scientific, Waltham, MA USA). Excitation was performed at 470 nm and emission was measured at 560 nm. Dissociation constants (Kd) were determined by fitting the concentration-dependent binding curve to a quadratic ligand binding equation.
(§2) Fluorescence polarization measurements were performed to determine the binding affinities of SH3 domain–PRP interaction pairs from the dot blot analysis. SH3 proteins were titrated at increasing concentrations against fluorescent PRPs, which were kept at a constant concentration of 0.2 µM. GRB2-2^W193K, which is defective in the binding of PRPs such as RP1, was used as a negative control as previously described. […] The resulting data (Figure S6) allowed the evaluation of equilibrium dissociation constants (Kd) for 45 interactions between the SH3 domains and the PRPs (Figure 2B; Table S6).
(§3) Figure S6. Interactions of the SH3 domains with fluorescent PRPs measured by fluorescence polarization.
(§4) Fluorescent peptides (0.2 µM) were titrated with increasing concentrations of the corresponding SH3 domains.
(§5) GRB2-2W193K, defective in the binding of PRPs such as RP1, was used as a negative control as previously described. The x-axis represents SH3 domain concentrations as GST fusion proteins in µM, while the y-axis represents fluorescence polarization. The equilibrium dissociation constants (Kd) for the respective measurements were determined by fitting the titration curves to a quadratic ligand-binding equation (solid lines). All Kd values are […]
(§6) Error bars are derived from the fitting errors.

[2] = target: T2, NCK1-1 SH3 domain (aa 2-61) (Homo sapiens, UniProt P16333); conditions: FP, 0.2 µM fluorescein-labeled peptide, SH3 domain 0-200 µM, Tris/HCl pH 7.5, 25 °C, quadratic fit; for pKd: read-out: Kd
T2 construct: 2-61; GST (N); made in house; host or cells: Escherichia coli CodonPlus, Rosetta, BL21(DE3)
Experimental: as §1, §2, §3, §4, §5, §6

[3] = target: T3, RASA1 SH3 domain (aa 279–341) (Homo sapiens, UniProt P20936); conditions: FP, 0.2 µM fluorescein-labeled peptide, SH3 domain 0-200 µM, Tris/HCl pH 7.5, 25 °C, quadratic fit
T3 construct: 279–341; GST (N); made in house; host or cells: Escherichia coli CodonPlus, Rosetta, BL21(DE3)
T3 sequence (P20936 279-341): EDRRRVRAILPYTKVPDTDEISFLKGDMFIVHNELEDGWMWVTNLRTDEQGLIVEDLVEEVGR
Experimental: as §1, §2, §3, §4, §5, §6

[4] = target: T4, SH3PXD2A-1 SH3 domain (aa 166-225) (Homo sapiens, UniProt Q5TCZ1); conditions: FP, 0.2 µM fluorescein-labeled peptide, SH3 domain 0-200 µM, Tris/HCl pH 7.5, 25 °C, quadratic fit
T4 construct: 166-225; GST (N); made in house; host or cells: Escherichia coli CodonPlus, Rosetta, BL21(DE3)
T4 sequence (Q5TCZ1 166-225): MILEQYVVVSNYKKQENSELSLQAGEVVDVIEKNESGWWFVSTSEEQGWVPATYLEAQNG
Experimental: as §1, §2, §3, §4, §5, §6

[5] = target: T5, SH3GLB1 SH3 domain (aa 305-365) (Homo sapiens, UniProt Q9Y371); conditions: FP, 0.2 µM fluorescein-labeled peptide, SH3 domain 0-200 µM, Tris/HCl pH 7.5, 25 °C, quadratic fit
T5 construct: 305-365; GST (N); made in house; host or cells: Escherichia coli CodonPlus, Rosetta, BL21(DE3)
T5 sequence (Q9Y371 305-365): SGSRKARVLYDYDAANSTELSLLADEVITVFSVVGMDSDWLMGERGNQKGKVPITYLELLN
Experimental: as §1, §2, §3, §4, §5, §6

[6] = target: T6, RIMBP3B-1 SH3 domain (aa 832-899) (Homo sapiens, UniProt A6NNM3); conditions: FP, 0.2 µM fluorescein-labeled peptide, SH3 domain 0-200 µM, Tris/HCl pH 7.5, 25 °C, quadratic fit
T6 construct: 832-899; GST (N); made in house; host or cells: Escherichia coli CodonPlus, Rosetta, BL21(DE3)
T6 sequence (A6NNM3 832-899): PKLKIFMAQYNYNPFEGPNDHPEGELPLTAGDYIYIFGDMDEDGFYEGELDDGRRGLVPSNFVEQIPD
Experimental: as §1, §2, §3, §4, §5, §6

[7] = target: T7, SORBS1-1 SH3 domain (aa 793-852) (Homo sapiens, UniProt Q9BX66); conditions: FP, 0.2 µM fluorescein-labeled peptide, SH3 domain 0-200 µM, Tris/HCl pH 7.5, 25 °C, quadratic fit
T7 construct: 793-852; GST (N); made in house; host or cells: Escherichia coli CodonPlus, Rosetta, BL21(DE3)
T7 sequence (Q9BX66 793-852): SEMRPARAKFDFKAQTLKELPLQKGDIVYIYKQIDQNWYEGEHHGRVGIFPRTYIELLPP
Experimental: as §1, §2, §3, §4, §5, §6

[8] = target: T8, NCK1-2 SH3 domain (aa 106-165) (Homo sapiens, UniProt P16333); conditions: FP, 0.2 µM fluorescein-labeled peptide, SH3 domain 0-200 µM, Tris/HCl pH 7.5, 25 °C, quadratic fit; for pKd: read-out: Kd
T8 construct: 106-165; GST (N); made in house; host or cells: Escherichia coli CodonPlus, Rosetta, BL21(DE3)
Experimental: as §1, §2, §3, §4, §5, §6

[9] = target: T9, SNX9 SH3 domain (aa 1-62) (Homo sapiens, UniProt Q9Y5X1); conditions: FP, 0.2 µM fluorescein-labeled peptide, SH3 domain 0-200 µM, Tris/HCl pH 7.5, 25 °C, quadratic fit
T9 construct: 1-62; GST (N); made in house; host or cells: Escherichia coli CodonPlus, Rosetta, BL21(DE3)
Experimental: as §1, §2, §3, §4, §5, §6

[10] = target: T10, SRC SH3 domain (aa 77-140) (Homo sapiens, UniProt P12931); conditions: FP, 0.2 µM fluorescein-labeled peptide, SH3 domain 0-200 µM, Tris/HCl pH 7.5, 25 °C, quadratic fit
T10 construct: 77-140; GST (N); made in house; host or cells: Escherichia coli CodonPlus, Rosetta, BL21(DE3)
Experimental: as §1, §2, §3, §4, §5, §6

[11] = target: T11, NCK1-3 SH3 domain (aa 190–252) (Homo sapiens, UniProt P16333); conditions: NCK1-3 (wt), FP, 0.2 µM fluorescein-labeled peptide, SH3 domain 0-200 µM, Tris/HCl pH 7.5, 25 °C, quadratic fit; for pKd: read-out: Kd
T11 construct: 190–252; GST (N); made in house; host or cells: Escherichia coli CodonPlus, Rosetta, BL21(DE3)
Experimental: as §1, §2, §3, §4, §5, §6

[12] = target: T12, ITSN1-5 SH3 domain (aa 1155-1214) (Homo sapiens, UniProt Q15811); conditions: FP, 0.2 µM fluorescein-labeled peptide, SH3 domain 0-200 µM, Tris/HCl pH 7.5, 25 °C, quadratic fit
T12 construct: 1155-1214; GST (N); made in house; host or cells: Escherichia coli CodonPlus, Rosetta, BL21(DE3)
T12 sequence (Q15811 1155-1214): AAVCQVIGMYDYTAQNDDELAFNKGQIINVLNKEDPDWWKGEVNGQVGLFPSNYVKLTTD
Experimental: as §1, §2, §3, §4, §5, §6

T10 sequence (P12931 77-140 limits assumed): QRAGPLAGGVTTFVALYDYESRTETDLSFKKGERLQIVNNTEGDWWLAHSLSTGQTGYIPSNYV
T9 sequence (Q9Y5X1 1-62): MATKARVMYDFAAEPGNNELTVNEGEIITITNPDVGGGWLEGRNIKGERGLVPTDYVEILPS

SMILES | pKd [1] | pKd [2] | pKd [3] | pKd [4] | pKd [5] | pKd [6] | pKd [7] | pKd [8] | pKd [9] | pKd [10] | pKd [11] | pKd [12] | Kd [2] | Kd [8] | Kd [11]
C[C@H](N)C(=O)N[C@@H](Cc1ccccc1)C(=O)N[C@@H](Cc1ccccc1)C(=O)N1CCC[C@H]1C(=O)N[C@@H](CC(N)=O)C(=O)N[C@@H](CO)C(=O)N1CCC[C@H]1C(=O)N[C@@H](CO)C(=O)N1CCC[C@H]1C(=O)N[C@@H](Cc1ccccc1)C(=O)N[C@H](C(=O)N1CCC[C@H]1C(=O)N1CCC[C@H]1C(=O)N1CCC[C@H]1C(=O)N1CCC[C@H]1C(=O)N[C@@H](CCC(N)=O)C(=O)N[C@H](C(=O)N1CCC[C@H]1C(=O)N[C@@H](CO)C(=O)N1CCC[C@H]1C(=O)N[C@@H](Cc1c[nH]cn1)C(=O)NCC(=O)N[C@H](C(=O)O)[C@@H](C)O)[C@@H](C)O)[C@@H](C)O [Peptide P7] (H-AFFPNSPSPFTPPPPQTPSPHGT-OH) | < 3.70 | < 3.70 | < 3.70 | < 3.70 | < 3.70 | 4.82 | 4.88 | < 3.70 | < 3.70 | 4.88 | < 3.70 | < 3.70 |  |  | 
CC(C)C[C@H](NC(=O)[C@@H]1CCCN1C(=O)[C@@H]1CCCN1C(=O)[C@H](CO)NC(=O)[C@@H]1CCCN1C(=O)[C@H](CC(C)C)NC(=O)[C@H](Cc1c[nH]cn1)NC(=O)[C@@H](N)CCCNC(=N)N)C(=O)N[C@H](C(=O)N[C@@H](CCC(N)=O)C(=O)O)[C@@H](C)O [Peptide P8] (H-RHLPSPPLTQ-OH; N-terminus and C-terminus assumed) | < 3.70 | < 3.70 | < 3.70 | < 3.70 | < 3.70 | < 3.70 | < 3.70 | < 3.70 | < 3.70 | < 3.70 | < 3.70 | < 3.70 |  |  | 
CC[C@H](C)[C@H](N)C(=O)N[C@@H](C)C(=O)NCC(=O)N1CCC[C@H]1C(=O)N1CCC[C@H]1C(=O)N[C@H](C(=O)N1CCC[C@H]1C(=O)N1CCC[C@H]1C(=O)N[C@@H](CCCNC(=N)N)C(=O)N[C@@H](CCC(N)=O)C(=O)N[C@@H](CO)C(=O)O)C(C)C [Peptide P9] (H-IAGPPVPPRQS-OH) | < 3.70 | < 3.70 | < 3.70 | < 3.70 | < 3.70 | < 3.70 | < 3.70 | < 3.70 | < 3.70 | < 3.70 | 5.05 and 6.05 | < 3.70 | do not bind | do not bind | tightly bound
CC[C@H](C)[C@H](NC(=O)[C@H](Cc1c[nH]cn1)NC(=O)[C@@H](N)CCC(N)=O)C(=O)N1CCC[C@H]1C(=O)N[C@@H](CCCCN)C(=O)N[C@@H](CC(C)C)C(=O)N1CCC[C@H]1C(=O)N1CCC[C@H]1C(=O)N[C@@H](CCCCN)C(=O)N[C@H](C(=O)N[C@@H](Cc1ccc(O)cc1)C(=O)O)[C@@H](C)O [Peptide P10] (H-QHIPKLPPKTY-OH; N-terminus and C-terminus assumed) | < 3.70 | < 3.70 | < 3.70 | < 3.70 | < 3.70 | < 3.70 | < 3.70 | < 3.70 | < 3.70 | < 3.70 | < 3.70 | < 3.70 |  |  | 
CC(C)[C@H](N)C(=O)N1CCC[C@H]1C(=O)N[C@H](C(=O)N1CCC[C@H]1C(=O)N1CCC[C@H]1C(=O)N1CCC[C@H]1C(=O)N[C@H](C(=O)N1CCC[C@H]1C(=O)N1CCC[C@H]1C(=O)N[C@@H](CCCNC(=N)N)C(=O)N[C@@H](CCCNC(=N)N)C(=O)N[C@@H](CCCNC(=N)N)C(=O)O)C(C)C)C(C)C [RP1, reference compound] | < 3.70 | < 3.70 | < 3.70 | < 3.70 | < 3.70 | < 3.70 | < 3.70 | 5.70 | < 3.70 | < 3.70 | 4.61 | < 3.70 |  |  | 
CC(C)[C@H](NC(=O)[C@@H]1CCCN1C(=O)[C@@H]1CCCN1C(=O)[C@H](C)NC(=O)[C@H](CCC(=O)O)NC(=O)[C@H](CS)NC(=O)[C@@H](N)CCCNC(=N)N)C(=O)N1CCC[C@H]1C(=O)N1CCC[C@H]1C(=O)N[C@@H](CCCNC(=N)N)C(=O)N[C@@H](CCCNC(=N)N)C(=O)N[C@@H](CCC(=O)O)C(=O)N[C@@H](CCCNC(=N)N)C(=O)NCC(=O)O [RP2, reference compound] (H-RCEAPPVPPRRERG-OH) | < 3.70 | < 3.70 | < 3.70 | 4.68 | < 3.70 | < 3.70 | < 3.70 | 6.00 | < 3.70 | < 3.70 | 5.60 | 4.64 |  |  | 
